This passage reports inhibition and Activity results from ChEMBL document CHEMBL3044779, “The action of herbicides on fatty acid biosynthesis and elongation in barley and cucumber” (Pest Manag Sci, 2010).

Experiment [1] relates to Hordeum vulgare. Description: Inhibition of fatty acid synthesis in Hordeum vulgare (barley) using [14C]acetate assessed as reduction in [14C]-labeled 20C fatty acid level at 300 uM after 3 hr by liquid scintillation counting. In kind it is functional, organism-based.
Experiment [2] concerns Cucumis sativus. Description: Inhibition of fatty acid synthesis in Cucumis sativus (cucumber) using [14C]malonate assessed as [14C]-labeled 24C fatty acid level at 300 uM after 3 hr by liquid scintillation counting (reference value: 26.4 +/- 5.5%). On the set-up: scale not given: the % may be the effect or the level left. In kind it is functional.
The test system of experiment [3] is Cucumis sativus. Put plainly: Inhibition of fatty acid synthesis in Cucumis sativus (cucumber) using [14C]malonate assessed as [14C]-labeled 20C fatty acid level at 300 uM after 3 hr by liquid scintillation counting (reference value: 11.7 +/- 2%). In kind it is functional. Also noted: scale not given: the % may be the effect or the level left.
The subject of experiment [4] is Cucumis sativus. Description: Inhibition of fatty acid synthesis in Cucumis sativus (cucumber) using [14C]malonate assessed as [14C]-labeled 22C fatty acid level at 300 uM after 3 hr by liquid scintillation counting (reference value: 42.5 +/- 0.6%). In kind it is functional. Also noted: scale not given: the % may be the effect or the level left.
Experiment [5] relates to Cucumis sativus. Put plainly: Inhibition of fatty acid synthesis in Cucumis sativus (cucumber) assessed as inhibition of [14C]malonate incoporation in total fatty acids at 300 uM measured as total disintegration per g of fresh weight after 3 hr by liquid scintillation counting (reference value: 16.3 +/- 1.1 dpm x 10^6 g'1 fresh wt). Format: functional.
The test system of experiment [6] is Cucumis sativus. Description: Inhibition of fatty acid synthesis in Cucumis sativus (cucumber) using [14C]acetate assessed as reduction in [14C]-labeled 20C fatty acid level at 300 uM after 3 hr by liquid scintillation counting relative to control. Format: functional, organism-based.
The subject of experiment [7] is Hordeum vulgare. Put plainly: Inhibition of fatty acid synthesis in Hordeum vulgare (barley) using [14C]acetate assessed as [14C]-labeled 16C fatty acid level at 300 uM after 3 hr by liquid scintillation counting (reference value: 30.6 +/- 0.2%). Also noted: scale not given: the % may be the effect or the level left. In kind it is functional.
Experiment [8] relates to Cucumis sativus. Description: Inhibition of fatty acid synthesis in Cucumis sativus (cucumber) assessed as inhibition of [14C]acetate incoporation in total fatty acids at 300 uM measured as total disintegration per g of fresh weight after 3 hr by liquid scintillation counting (reference value: 4.4 +/- 1 dpm x 10^6 g'1 fresh wt). Format: functional.
For experiment [9], the system named is Hordeum vulgare. Description: Inhibition of fatty acid synthesis in Hordeum vulgare (barley) assessed as inhibition of [14C]acetate incoporation in total fatty acids at 300 uM measured as total disintegration per g of fresh weight after 3 hr by liquid scintillation counting (reference value: 5.8 +/- 1.6 dpm x 10^6 g'1 fresh wt). Format: functional.
The subject of experiment [10] is Cucumis sativus. Description: Inhibition of fatty acid synthesis in Cucumis sativus (cucumber) using [14C]malonate assessed as [14C]-labeled 16C fatty acid level at 300 uM after 3 hr by liquid scintillation counting (reference value: 5.1 +/- 0.9%). On the set-up: scale not given: the % may be the effect or the level left. In kind it is functional.
In experiment [11] the test system is Hordeum vulgare. Put plainly: Inhibition of fatty acid synthesis in Hordeum vulgare (barley) using [14C]acetate assessed as reduction in [14C]-labeled 24C fatty acid level at 300 uM after 3 hr by liquid scintillation counting. In kind it is functional, organism-based.
In experiment [12] the test system is Hordeum vulgare. Description: Inhibition of fatty acid synthesis in Hordeum vulgare (barley) using [14C]malonate assessed as [14C]-labeled 24C fatty acid level at 300 uM after 3 hr by liquid scintillation counting (reference value: 16.2 +/- 1.1 %). Format: functional. On the set-up: scale not given: the % may be the effect or the level left.
For experiment [13], the system named is Hordeum vulgare. Description: Inhibition of fatty acid synthesis in Hordeum vulgare (barley) using [14C]malonate assessed as [14C]-labeled 22C fatty acid level at 300 uM after 3 hr by liquid scintillation counting (reference value: 32.8 +/- 2.3%). Format: functional. On the set-up: scale not given: the % may be the effect or the level left.
Experiment [14] concerns Hordeum vulgare. Put plainly: Inhibition of fatty acid synthesis in Hordeum vulgare (barley) using [14C]malonate assessed as [14C]-labeled 18C fatty acid level at 300 uM after 3 hr by liquid scintillation counting (reference value: 12.5 +/- 3.9 %). In kind it is functional. Also noted: scale not given: the % may be the effect or the level left.
The subject of experiment [15] is Hordeum vulgare. Put plainly: Inhibition of fatty acid synthesis in Hordeum vulgare (barley) using [14C]malonate assessed as [14C]-labeled 16C fatty acid level at 300 uM after 3 hr by liquid scintillation counting (reference value: 8.1 %). In kind it is functional. Also noted: scale not given: the % may be the effect or the level left.
Experiment [16] relates to Hordeum vulgare. Description: Inhibition of fatty acid synthesis in Hordeum vulgare (barley) assessed as inhibition of [14C]malonate incoporation in total fatty acids at 300 uM measured as total disintegration per g of fresh weight after 3 hr by liquid scintillation counting (reference value: 9.4 +/- 2.5 dpm x 10^6 g'1 fresh wt). Format: functional.
The subject of experiment [17] is Cucumis sativus. Put plainly: Inhibition of fatty acid synthesis in Cucumis sativus (cucumber) using [14C]acetate assessed as [14C]-labeled 18C fatty acid level at 300 uM after 3 hr by liquid scintillation counting (reference value: 33.5 +/- 1.5%). In kind it is functional. On the set-up: scale not given: the % may be the effect or the level left.
Experiment [18] has as its system Cucumis sativus. Description: Inhibition of fatty acid synthesis in Cucumis sativus (cucumber) using [14C]malonate assessed as [14C]-labeled 18C fatty acid level at 300 uM after 3 hr by liquid scintillation counting (reference value: 14.3 +/- 2%). Format: functional. Also noted: scale not given: the % may be the effect or the level left.
The subject of experiment [19] is Hordeum vulgare. Put plainly: Inhibition of fatty acid synthesis in Hordeum vulgare (barley) using [14C]acetate assessed as reduction in [14C]-labeled 22C fatty acid level at 300 uM after 3 hr by liquid scintillation counting. In kind it is functional, organism-based.
Experiment [20] relates to Hordeum vulgare. Description: Inhibition of fatty acid synthesis in Hordeum vulgare (barley) using [14C]acetate assessed as [14C]-labeled 18C fatty acid level at 300 uM after 3 hr by liquid scintillation counting (reference value: 57 +/- 0.9%). Format: functional. Also noted: scale not given: the % may be the effect or the level left.
For experiment [21], the system named is Hordeum vulgare. Put plainly: Inhibition of fatty acid synthesis in Hordeum vulgare (barley) using [14C]malonate assessed as [14C]-labeled 20C fatty acid level at 300 uM after 3 hr by liquid scintillation counting (reference value: 6.5 +/- 3.1 %). Format: functional. Also noted: scale not given: the % may be the effect or the level left.
For experiment [22], the system named is Cucumis sativus. Description: Inhibition of fatty acid synthesis in Cucumis sativus (cucumber) using [14C]acetate assessed as [14C]-labeled 16C fatty acid level at 300 uM after 3 hr by liquid scintillation counting (reference value: 27.6 +/- 5.1%). Format: functional. Also noted: scale not given: the % may be the effect or the level left.

Activity calls are given as the source filed them. The calls are words filed in the database; no cut-off is given here.

Turning to `COCCN(C(=O)CCl)c1c(C)cccc1C` [DIMETHACHLOR], the inhibition entry in the experiment on Hordeum vulgare [1], with Cucumis sativus [6], in the experiment with Hordeum vulgare [11] and in the experiment with Hordeum vulgare [19] was “Active” in each case. For the same compound, the Activity with Cucumis sativus [2] stood at 9.3%; with Cucumis sativus [3], 11.2%; in the experiment with Cucumis sativus [4], 12.5%; with Cucumis sativus [5] it was 9.4 ×10⁶ dpm; in the experiment with Hordeum vulgare [7], 36.1%; with Cucumis sativus [8], 2.9 ×10⁶ dpm. Also, the Activity with Hordeum vulgare [9] worked out at 5.9 ×10⁶ dpm; in the experiment on Cucumis sativus [10] it was 20.4%; in the experiment with Hordeum vulgare [12], 5.8%; in the experiment with Hordeum vulgare [13] it was 18.1%; in the experiment on Hordeum vulgare [14] it was 7.3%; in the experiment on Hordeum vulgare [15] it was 14%. The Activity in the experiment on Hordeum vulgare [16] is listed as 6.8 ×10⁶ dpm; in the experiment with Cucumis sativus [17], 63.9%; with Cucumis sativus [18], 46.8%; in the experiment with Hordeum vulgare [20], 63.9%; with Hordeum vulgare [21], 8.5%; in the experiment on Cucumis sativus [22], 36.2%.
